Each structure is given as a SMILES string. Some results are limits rather than exact numbers.

For 22 molecules, IC50 results are on record in patent publication US12202835B2, “Substituted aromatic ring-linked dioxinoquinazolines and dioxinoquinolines as kinase inhibitors” (BEIJING SCITECH-MQ PHARMACEUTICALS LIMITED, priority 2018, dated 2025).

This experiment relates to Ba/F3 LMNA-NTRK1 cells. Briefly: Assay for inhibiting the proliferation of Ba/F3 LMNA-NTRK1 cells (CCK-8). Particulars: Mus musculus, BaF3. In kind it is cell-based. The procedure, abridged:
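Cells were seeded and cultured overnight, then treated with graded compound concentrations (final DMSO 0.25%) for 72 h. CCK-8 was added for 1–2 h at 37 °C and OD450 read. Survival was normalised to untreated and cell-free blank wells, and IC50 was fitted.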
A word on the IC50: it is the concentration needed to halve the response being measured. Regarding `CC(C)n1cc(C(=O)Nc2ccc(Oc3ccnc4cc(OCCCN5CCC(C)(C)CC5)c5c(c34)OCCO5)c(F)c2)c(=O)n(-c2ccc(F)cc2)c1=O` [Example 92, N-(3-fluoro-4-((5-(3-(4,4-dimethylpiperidin-1-yl)propoxy)-2,3-dihydro-[1,4]dioxino[2,3-f]quinolin-10-yl)oxy)phenyl)-3-(4-fluorophenyl)-1-isopropyl-2,4-dioxo-1,2,3,4-tetrahydropyrimidine-5-carboxamide], the IC50 was in the range of 0.05 to 0.2 µM.
With `CCOc1ccn(-c2ccc(F)cc2)c(=O)c1C(=O)Nc1ccc(Oc2ccnc3cc(OCCCN(C)CCOC)c4c(c23)OCCO4)c(F)c1` [Example 70, N-(4-((5-(3-((2-methoxyethyl)(methyl)amino)propoxy)-2,3-dihydro-[1,4]dioxino[2,3-f]quinolin-10-yl)oxy)-3-fluorophenyl)-4-ethoxy-1-(4-fluorophenyl)-2-oxo-1,2-dihydropyridine-3-carboxamide] the figure was under 0.05 µM; with `CCOc1ccn(-c2ccc(F)cc2)c(=O)c1C(=O)Nc1ccc(Oc2ccnc3cc(OCCO)c4c(c23)OCCO4)c(F)c1` [Example 53, N-(4-((5-(2-hydroxyethoxy)-2,3-dihydro-[1,4]dioxino[2,3-f]quinolin-10-yl)oxy)-3-fluorophenyl)-4-ethoxy-1-(4-fluorophenyl)-2-oxo-1,2-dihydropyridine-3-carboxamide], under 0.05 µM; with `CCOc1ccn(-c2ccc(F)cc2)c(=O)c1C(=O)Nc1ccc(Oc2ccnc3cc(OCCCN4CCC(C)(C)CC4)c4c(c23)OCCO4)c(F)c1` [Example 67, N-(4-((5-(3-(4,4-dimethylpiperidin-1-yl)propoxy)-2,3-dihydro-[1,4]dioxino[2,3-f]quinolin-10-yl)oxy)-3-fluorophenyl)-4-ethoxy-1-(4-fluorophenyl)-2-oxo-1,2-dihydropyridine-3-carboxamide], under 0.05 µM.
With `CCOc1ccn(-c2ccc(F)cc2)c(=O)c1C(=O)Nc1ccc(Oc2ccnc3cc(OCCCN4CCC(C)(N)CC4)c4c(c23)OCCO4)c(F)c1` [Example 68, N-(4-((5-(3-(4-amino-4-methylpiperidin-1-yl)propoxy)-2,3-dihydro-[1,4]dioxino[2,3-f]quinolin-10-yl)oxy)-3-fluorophenyl)-4-ethoxy-1-(4-fluorophenyl)-2-oxo-1,2-dihydropyridine-3-carboxamide] the figure was 0.2 to 1 µM.
With `CCOc1ccn(-c2ccc(F)cc2)c(=O)c1C(=O)Nc1ccc(Oc2ccnc3cc(OC4CCOCC4)c4c(c23)OCCO4)c(F)c1` [Example 66, N-(4-((5-((tetrahydropyran-4-yl)oxy)-2,3-dihydro-[1,4]dioxino[2,3-f]quinolin-10-yl)oxy)-3-fluorophenyl)-4-ethoxy-1-(4-fluorophenyl)-2-oxo-1,2-dihydropyridine-3-carboxamide] the figure was 0.05 to 0.2 µM; with `CCOc1ccn(-c2ccc(F)cc2)c(=O)c1C(=O)Nc1ccc(Oc2ccnc3cc(OCCCN4CCS(=O)(=O)CC4)c4c(c23)OCCO4)c(F)c1` [Example 51, N-(4-((5-(3-(1,1-dioxidothiomorpholino)propoxy)-2,3-dihydro-[1,4]dioxino[2,3-f]quinolin-1 0-yl)oxy)-3-fluorophenyl)-4-ethoxy-1-(4-fluorophenyl)-2-oxo-1,2-dihydropyridine-3-carboxamide], under 0.05 µM; with `CCOc1ccn(-c2ccc(F)cc2)c(=O)c1C(=O)Nc1ccc(Oc2ccnc3cc(OCCCN4CCOCC4)c4c(c23)OCCO4)cc1Cl` [Example 73, N-(2-chloro-4-((5-(3-morpholinopropoxy)-2,3-dihydro-[1,4]dioxino[2,3-f]quinolin-10-yl)oxy)phenyl)-4-ethoxy-1-(4-fluorophenyl)-2-oxo-1,2-dihydropyridine-3-carboxamide], under 0.05 µM.
Take `COCCCOc1cc2nccc(Oc3ccc(NC(=O)c4cn(C)c(=O)n(-c5ccc(F)cc5)c4=O)cc3F)c2c2c1OCCO2` [Example 80, N-(3-fluoro-4-((5-(3-methoxypropoxy)-2,3-dihydro-[1,4]dioxino[2,3-f]quinolin-10-yl)oxy)phenyl)-3-(4-fluorophenyl)-1-methyl-2,4-dioxo-1,2,3,4-tetrahydropyrimidine-5-carboxamide]: the IC50 is under 0.05 µM.
With `Cn1cc(C(=O)Nc2ccc(Oc3ccnc4cc(OC5CCOCC5)c5c(c34)OCCO5)c(F)c2)c(=O)n(-c2ccc(F)cc2)c1=O` [Example 91, N-(3-fluoro-4-((5-((tetrahydropyran-4-yl)oxy)-2,3-dihydro-[1,4]dioxino[2,3-f]quinolin-10-yl)oxy)phenyl)-3-(4-fluorophenyl)-1-methyl-2,4-dioxo-1,2,3,4-tetrahydropyrimidine-5-carboxamide] the figure was under 0.05 µM.
In turn, `CCOc1ccn(-c2ccc(F)cc2)c(=O)c1C(=O)Nc1ccc(Oc2ccnc3cc(OCCCN4CCOCC4)c4c(c23)OCCO4)c(Cl)c1` [Example 72, N-(4-((5-(3-morpholinopropoxy)-2,3-dihydro-[1,4]dioxino[2,3-f]quinolin-10-yl)oxy)-3-chlorophenyl)-4-ethoxy-1-(4-fluorophenyl)-2-oxo-1,2-dihydropyridine-3-carboxamide] gave an IC50 of under 0.05 µM.
With `CCOc1ccn(-c2ccc(F)cc2)c(=O)c1C(=O)Nc1ccc(Oc2ccnc3cc(OCCCN4CCN(C)CC4)c4c(c23)OCCO4)c(F)c1` [Example 49, N-(3-fluoro-4-((5-(3-(4-methylpiperazin-1-yl)propoxy)-2,3-dihydro-[1,4]dioxino[2,3-f]quinolin-10-yl)oxy)phenyl)-1-(4-fluorophenyl)-4-ethoxy-2-oxo-1,2-dihydropyridine-3-carboxamide] the figure was under 0.05 µM.
`CCOc1ccn(-c2ccc(F)cc2)c(=O)c1C(=O)Nc1ccc(Oc2ccnc3cc(OC4CCOC4)c4c(c23)OCCO4)c(F)c1` (stereo not shown) [Example 65, N-(4-((5-((tetrahydrofuran-3-yl)oxy)-2,3-dihydro-[1,4]dioxino[2,3-f]quinolin-10-yl)oxy)-3-fluorophenyl)-4-ethoxy-1-(4-fluorophenyl)-2-oxo-1,2-dihydropyridine-3-carboxamide] yielded an IC50 of 0.05 to 0.2 µM.
As for `CCOc1ccn(-c2ccc(F)cc2)c(=O)c1C(=O)Nc1ccc(Oc2ccnc3cc(OCCCC#N)c4c(c23)OCCO4)c(F)c1` [Example 57, N-(4-((5-(3-cyanopropoxy)-2,3-dihydro-[1,4]dioxino[2,3-f]quinolin-10-yl)oxy)-3-fluorophenyl)-4-ethoxy-1-(4-fluorophenyl)-2-oxo-1,2-dihydropyridine-3-carboxamide], the figure is under 0.05 µM; as for `CCOc1ccn(-c2ccc(F)cc2)c(=O)c1C(=O)Nc1ccc(Oc2ccnc3cc(OCC#N)c4c(c23)OCCO4)c(F)c1` [Example 56, N-(4-((5-(cyanomethoxy)-2,3-dihydro-[1,4]dioxino[2,3-f]quinolin-10-yl)oxy)-3-fluorophenyl)-4-ethoxy-1-(4-fluorophenyl)-2-oxo-1,2-dihydropyridine-3-carboxamide], under 0.05 µM; as for `CCOc1ccn(-c2ccc(F)cc2)c(=O)c1C(=O)Nc1ccc(Oc2ccnc3cc(OCCCN4CCN(C(C)=O)CC4)c4c(c23)OCCO4)c(F)c1` [Example 50, N-(4-((5-(3-(4-acetyl-piperazin-1-yl)propoxy)-2,3-dihydro-[1,4]dioxino[2,3-f]quinolin-10-yl)oxy)-3-fluorophenyl)-4-ethoxy-1-(4-fluorophenyl)-2-oxo-1,2-dihydropyridine-3-carboxamide], under 0.05 µM.
As for `CCOc1cc2nccc(Oc3ccc(NC(=O)c4c(OCC)ccn(-c5ccc(F)cc5)c4=O)cc3F)c2c2c1OCCO2` [Example 62, N-(4-((5-ethoxy-2,3-dihydro-[1,4]dioxino[2,3-f]quinolin-10-yl)oxy)-3-fluorophenyl)-4-ethoxy-1-(4-fluorophenyl)-2-oxo-1,2-dihydropyridine-3-carboxamide], the IC50 was under 0.05 µM.
In the case of `CCOc1ccn(-c2ccc(F)cc2)c(=O)c1C(=O)Nc1ccc(Oc2ccnc3cc(OCCCN(C)C4CCC4)c4c(c23)OCCO4)c(F)c1` [Example 71, N-(4-((5-(3-(cyclobutyl(methyl)amino)propoxy)-2,3-dihydro-[1,4]dioxino[2,3-f]quinolin-10-yl)oxy)-3-fluorophenyl)-4-ethoxy-1-(4-fluorophenyl)-2-oxo-1,2-dihydropyridine-3-carboxamide], the concentration for half-maximal inhibition (IC50) is under 0.05 µM.
As for `CCOc1ccn(-c2ccc(F)cc2)c(=O)c1C(=O)Nc1ccc(Oc2ccnc3cc(OCCCN4CCC(C)(O)CC4)c4c(c23)OCCO4)c(F)c1` [Example 69, N-(4-((5-(3-(4-hydroxy-4-methylpiperidin-1-yl)propoxy)-2,3-dihydro-[1,4]dioxino[2,3-f]quinolin-10-yl)oxy)-3-fluorophenyl)-4-ethoxy-1-(4-fluorophenyl)-2-oxo-1,2-dihydropyridine-3-carboxamide], the figure is under 0.05 µM; as for `CC(C)n1cc(C(=O)Nc2ccc(Oc3ccnc4cc(OCCCN5CCS(=O)(=O)CC5)c5c(c34)OCCO5)c(F)c2)c(=O)n(-c2ccc(F)cc2)c1=O` [Example 76, N-(3-fluoro-4-((5-(3-(1,1-dioxidothiomorpholino)propoxy)-2,3-dihydro-[1,4]dioxino[2,3-f]quinolin-10-yl)oxy)phenyl)-3-(4-fluorophenyl)-1-isopropyl-2,4-dioxo-1,2,3,4-tetrahydropyrimidine-5-carboxamide], under 0.05 µM; as for `CCOc1ccn(-c2ccc(F)cc2)c(=O)c1C(=O)Nc1ccc(Oc2ccnc3cc(OC4COC4)c4c(c23)OCCO4)c(F)c1` [Example 64, N-(4-((5-((oxetan-3-yl)oxy)-2,3-dihydro-[1,4]dioxino[2,3-f]quinolin-10-yl)oxy)-3-fluorophenyl)-4-ethoxy-1-(4-fluorophenyl)-2-oxo-1,2-dihydropyridine-3-carboxamide], 0.05 to 0.2 µM.
With `CC(C)n1cc(C(=O)Nc2ccc(Oc3ccnc4cc(OCCCN5CCC(C)(N)CC5)c5c(c34)OCCO5)c(F)c2)c(=O)n(-c2ccc(F)cc2)c1=O` [Example 93, N-(3-fluoro-4-((5-(3-(4-amino-4-methylpiperidin-1-yl)propoxy)-2,3-dihydro-[1,4]dioxino[2,3-f]quinolin-10-yl)oxy)phenyl)-3-(4-fluorophenyl)-1-isopropyl-2,4-dioxo-1,2,3,4-tetrahydropyrimidine-5-carboxamide] the figure was 0.2 to 1 µM.
